Several values for one entry are separate records, joined by “and”; a condition that tells them apart may be missing. Equal entries are not always repeated.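 Grown in 96-well plates, cells were treated for 48 hours with each compound at five concentrations. Insufficient inhibition: endpoint recorded as highest concentration tested. The concentration for 50% growth inhibition is given as GI50. The concentration for full growth arrest is given as TGI.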
Experiments:
Assay in all cases: growth of human tumour cells (NCI), 48 h
[1] = test system: HOP-62 NSCLC
[2] = test system: K-562 leukemia
[3] = test system: SW-620 colon
[4] = test system: HS 578T breast
[5] = test system: SNB-19 CNS
[6] = test system: IGROV1 ovarian
[7] = test system: UO-31 renal
[8] = test system: T-47D breast
[9] = test system: UACC-62 melanoma
[10] = test system: OVCAR-4 ovarian

Compound | GI50 [1] | TGI [1] | GI50 [2] | TGI [2] | GI50 [3] | TGI [3] | GI50 [4] | TGI [4] | GI50 [5] | TGI [5] | GI50 [6] | TGI [6] | GI50 [7] | TGI [7] | GI50 [8] | GI50 [9] | TGI [9] | GI50 [10] | TGI [10] | TGI [8]
Cc1cccc2c1NC(=O)C2(c1ccc(O)cc1)c1ccc(O)cc1 | 14.8 µM | 38.3 µM | 19.1 µM | 99.5 µM | 20.8 µM | 69.8 µM | < 0.01 µM | < 0.0192 µM | 28.5 µM | > 100 µM | 0.0634 µM | 47.6 µM | 13.1 µM | 78.8 µM | < 0.01 µM | 11.4 µM | 35.1 µM | < 0.01 µM | < 0.0174 µM | 
COC(=O)c1cc(NC(=O)CN(CCN(CC(=O)O)CC(=O)Nc2ccc(O)c(C(=O)OC)c2)CC(=O)O)ccc1O | 42.3 µM | > 100 µM | 96.4 µM | > 100 µM | 74.9 µM | > 100 µM | > 100 µM | > 100 µM | 41.9 µM | > 100 µM | > 100 µM | > 100 µM | 42.7 µM | > 100 µM | 32.7 µM | 48.2 µM | > 100 µM | > 100 µM | > 100 µM | > 100 µM
Cc1csc(-c2ccc3c(c2)COC3(CCCN(C)C)c2ccc(F)cc2)c1 (stereo unspecified) | 1.67 µM | 3.42 µM | 2.29 µM | 5.18 µM | 1.8 µM | 3.51 µM | 1.93 µM | 4.44 µM | 1.75 µM | 3.31 µM | 1.67 µM | 3.32 µM | 1.46 µM | 2.79 µM | 1.85 µM | 1.78 µM | 3.36 µM | 1.67 µM | 3.11 µM | 4.62 µM
COc1cccc2cc(-c3nc(C4CCC(C(=O)O)CC4)n4ncnc(N)c34)[nH]c12 (stereo unspecified) | 0.305 µM and 0.338 µM | 3.64 µM and 4.83 µM | 0.499 µM and 2.63 µM | > 100 µM | 1.23 µM and 1.49 µM | > 100 µM | 0.135 µM and 0.11 µM | 0.627 µM and 0.979 µM | 1.34 µM and 1.49 µM | > 100 µM | 0.192 µM and 0.237 µM | 1.68 µM and 1.97 µM | 0.129 µM and 0.21 µM | 2.13 µM and 3.35 µM | 0.045 µM and 0.0505 µM | 0.18 µM and 0.188 µM | 1.51 µM and 1.83 µM | 0.155 µM and 0.288 µM | 2 µM and 3.28 µM | 0.442 µM and 0.356 µM
CN1CCN(CCCN2c3ccccc3Sc3ccc(C(F)(F)F)cc32)CC1 | 1.73 µM | 3.94 µM and 24.9 µM and 26.5 µM | 2.13 µM and 2.01 µM and 4.6 µM | 4.27 µM and 28.6 µM | 1.85 µM and 3.67 µM and 8.47 µM | 4.44 µM and 18.1 µM and 21.4 µM | 2.22 µM | 8.41 µM and 14.7 µM and 20.6 µM | 1.86 µM | 4.45 µM and 26.8 µM and 29.3 µM | 2.19 µM and 3.77 µM and 9.9 µM | 4.98 µM and 11.9 µM and 23 µM | 2.31 µM | 12 µM and 19.3 µM and 17.6 µM | 1.6 µM | 1.57 µM | 3.08 µM and 4.34 µM and 3.91 µM | 3.22 µM | 12.5 µM and 21.6 µM and 26.6 µM | 3.63 µM and 20.2 µM and 23.1 µM
C=C(CN(C)C)C(=O)c1ccc(OC)cc1 |  | 51.9 µM |  | 4.39 µM |  | 5.08 µM |  | > 87 µM |  | 40.3 µM |  | 22 µM |  | 7.92 µM |  |  | 20.4 µM |  | 22.1 µM | 4.62 µM
Nc1ncnc2c1c(C(=O)NO)cn2C1OC(CO)C(O)C1O (stereo unspecified) | 0.38 µM | > 22 µM | 0.79 µM | > 100 µM | 0.252 µM | > 31.7 µM | 0.331 µM | 3.54 µM | 0.847 µM | > 100 µM | 0.279 µM |  | 0.368 µM | 3.75 µM | 0.0885 µM | 0.32 µM | 1.19 µM | 0.213 µM | 5.61 µM | 1.39 µM
CCCN(CCC)c1ccc(/C=N/NC(=O)c2cccnc2)cc1 | 37.9 µM | > 100 µM | 8.02 µM | > 100 µM | 18.1 µM | > 100 µM | 22 µM | 87.1 µM | 53.8 µM | > 100 µM | 46.8 µM | > 100 µM | 43.3 µM | > 100 µM | 28.1 µM | 34.7 µM | > 100 µM | 35.4 µM | > 100 µM | > 100 µM
C(=C\c1nc2ccccc2s1)/c1ccc(N2CCOCC2)s1 | 45.5 µM | > 100 µM | > 100 µM | > 100 µM | > 100 µM | > 100 µM | 37 µM | > 100 µM | 51.4 µM | > 100 µM | 58.3 µM | > 100 µM | 80.5 µM | > 100 µM | 71 µM | 7.94 µM | > 100 µM | 33.7 µM | > 100 µM | > 100 µM
CC(=O)Nc1ccc(S(=O)(=O)c2ccc(NC(C)=O)cc2)cc1 | > 100 µM | > 100 µM | > 100 µM | > 100 µM | > 100 µM | > 100 µM | > 100 µM | > 100 µM |  |  | > 100 µM | > 100 µM | > 100 µM | > 100 µM | > 100 µM | > 100 µM | > 100 µM | > 100 µM | > 100 µM | > 100 µM
CS(=O)(=O)N(CC(=O)O)Cc1ccccc1 |  | > 100 µM |  | > 100 µM |  | > 100 µM |  | > 100 µM |  | > 100 µM |  | > 100 µM |  |  |  |  | > 100 µM |  | > 100 µM | > 100 µM
Cc1cccc2c1ccc1c3occ(C)c3c(=O)oc21 | > 100 µM | > 100 µM | > 100 µM | > 100 µM | > 100 µM | > 100 µM | > 100 µM | > 100 µM | > 100 µM | > 100 µM | > 100 µM | > 100 µM | > 100 µM | > 100 µM | 9.65 µM | > 100 µM | > 100 µM | > 100 µM | > 100 µM | > 100 µM
O=C(O)CP(=O)(c1ccccc1)c1ccccc1.O=C(O)CP(=O)(c1ccccc1)c1ccccc1.[Cd] | 18.6 µM | 46.1 µM | 15.1 µM | 36.8 µM | 19.6 µM | 42.6 µM | 19.4 µM | > 100 µM | 48.1 µM | > 100 µM | 16.6 µM | 37.1 µM | 21.6 µM | 49.1 µM | 24 µM | 2.2 µM | 6.31 µM | 13.3 µM | 34.1 µM | 73.3 µM
O=c1cc(-c2ccccc2)nc2cc(-c3ccco3)[nH]n12 | 13.4 µM | > 100 µM | 4.06 µM | > 100 µM | 4.51 µM | > 100 µM | 7.1 µM | 37.3 µM | 12.6 µM | > 100 µM | 7.91 µM | 60 µM | 7.92 µM | 59.8 µM | 4.44 µM | 5.66 µM | > 100 µM | 23 µM | > 100 µM | > 100 µM
COc1ccc2c(c1)c(-c1nc(-c3cn(C)c4ncccc34)cs1)cn2CCCCN1CCOCC1 | 1.76 µM | 3.64 µM | 0.675 µM | 1.61 µM | 0.745 µM | 1.92 µM | 1.22 µM | 5.46 µM | 1.65 µM | 3.49 µM | 2.66 µM | 10.4 µM | 1.2 µM | 2.56 µM | 7.08 µM | 1.62 µM | 3.44 µM | 1.71 µM | 4.94 µM | 29 µM
CC(C)NCCCCCNc1cc(O)cc2cccnc12 | > 100 µM | > 100 µM | > 100 µM | > 100 µM | > 100 µM | > 100 µM | > 42.5 µM | > 100 µM | > 100 µM | > 100 µM | 4.81 µM | > 100 µM | 85.2 µM | > 100 µM | 4.56 µM | > 100 µM | > 100 µM | 4.14 µM | > 100 µM | > 100 µM
Cc1ccc2nc(CC(=O)c3ccc4ccccc4c3)c(=O)[nH]c2c1 |  | > 100 µM |  | > 100 µM |  | > 100 µM |  | > 100 µM |  | > 100 µM |  | > 100 µM |  | > 100 µM |  |  | > 100 µM |  | > 100 µM | > 100 µM
COc1ccc(OC)c(-c2cc(C(=O)O)c3cc4ccccc4cc3n2)c1 |  | > 100 µM |  | > 100 µM |  | > 100 µM |  | > 100 µM |  | > 100 µM |  | > 100 µM |  |  |  |  | > 100 µM |  | > 100 µM | > 100 µM
C/C=C1\C[C@@H]2C(OC)Nc3cc(O)c(OC)cc3C(=O)N2C1 (stereo partly specified) | 0.00296 µM | 0.0155 µM and < 0.0566 µM | 0.00347 µM | 2.74 µM | 0.00703 µM | 36.8 µM |  | 0.0575 µM and < 0.0282 µM |  |  | 0.0159 µM | 0.906 µM and 2.84 µM | 0.00222 µM |  |  | 0.00284 µM | 0.00948 µM | 0.00355 µM | < 0.0172 µM and 0.0101 µM | 0.0783 µM and < 0.0265 µM
CCNC(=O)c1ccc2c(c1)nc(-c1ccc(Cl)cc1)n2-c1cc(C(C)(C)C)[nH]n1 | 5.41 µM | 36.2 µM | 3.35 µM | 16.8 µM |  |  | 2.58 µM | 7.6 µM | 3.97 µM | > 100 µM | 5.22 µM | 64.8 µM | 3.46 µM | 44.5 µM | 3.99 µM | 2.05 µM | 7.61 µM | 5.43 µM | > 100 µM | > 100 µM
Cc1cc2c(=O)c3ccccc3oc2c(C#N)c1C |  | > 100 µM |  | > 100 µM |  | > 100 µM |  | > 100 µM |  | > 100 µM |  | > 100 µM |  | > 100 µM |  |  |  |  | > 100 µM | > 100 µM

From PubChem BioAssay (NCI)
